Reference: US20260126382A1, “INTELLIGENT NIR II PHOTOTHERMAL AND COLORIMETRIC SENSING TECHNOLOGY” (Nanyang Technological University, priority 2022, published 2026)

Assays:
myrosinase (Myr) [1] = test: Effect of interfering substances (metal ions, small molecules, amino acids, EDTA) on the Myr test system; assay type: biochemical; conditions: interfering substances 1 mM, FIG. 17C
Procedure: (§1) For Myr detection, Sin (2.5 mM, 30 μL) and GOx (5 mg/mL, 10 μL, according to previous literature (Jiang, C. et al., RSC Adv. 2017, 7, 44463-44469)) were mixed with different concentrations of Myr first, and reacted at 37° C. for 30 min to generate H2O2. Then, an acetate buffer containing TMB and AuNPs was added into the aforementioned solution, incubated at 45° C. for 25 min, and cooled to room temperature. Afterward, the solution was used for the analysis of Myr enzyme activity.
For the anti-interference experiments discussed below, Sin (2.5 mM, 30 μL) and GOx (5 mg/mL, 10 μL) were mixed with different interfering substances first and reacted at 37° C. for 30 min. Then, acetate buffer containing TMB and AuNPs were added into the above solution, incubated at 45° C. for 25 min, and cooled to room temperature, and afterwards, the solution was used for photothermal and colorimetric analysis.

myrosinase (Myr) [2] = test: Effect of Sin concentration on the Sin+Myr+GOx+TMB+AuNPs system; assay type: biochemical; conditions: Myr 0.5 mg/mL, GOx 0.5 mg/mL, TMB 1.5 mM, AuNPs 0.45 nM
Procedure: as §1
Before testing different Myr concentrations, it is necessary to determine the maximum Sin concentration that can be applied. FIG. 16 illustrates that when the concentration of Sin exceeds 0.75 mM, the working efficiency decreases and the blue color becomes faint because excess Sin binds to the active regulatory sites of Myr, thereby inhibiting the activity of Myr to hydrolyze Sin. As a result, 0.75 mM was selected as the maximum Sin concentration for detecting commercial Myr at varying concentrations and constructing a standard curve. As shown in FIGS. 17A-B and 18, when Sin was present at a concentration of 0.75 mM, Myr was detectable in the range of 0-345 mU/mL, and its linear detection range in the absorption spectrum was 0 to 172.5 mU/mL with an LOD of 2.96 mU/mL.

[3] = natural enzyme, from literature; cited from earlier work
[4] = Peroxidase-like (POD-like) activity in the TMB+H2O2 system, Abs1064 nm; assay type: biochemical; conditions: TMB+H2O2 system with HRP, FIG. 11

inhibitory effect on Myr activity (myrosinase (Myr) [1]) | Compound | further results
inhibit Myr activity | O=C1O[C@H]([C@@H](O)CO)C(O)=C1O [Vc, Vitamin C] | 
strongest inhibitory effect | [Cu+2] [Cu^2+] | 
 | C=CC/C(=N/OS(=O)(=O)[O-])S[C@@H]1OC(CO)[C@@H](O)C(O)C1O.[K+] (stereo partly shown) [Sin, Sinigrin] | Sin concentration above which working efficiency decreases (excess Sin inhibiting the activity of Myr) (myrosinase (Myr) [2]): exceeds 0.75 mM
inhibit Myr activity | N[C@@H](CS)C(=O)O [Cys] | 
 | horseradish peroxidase [HRP] | temperature beyond which activity is lost [3]: exceeds 50 °C; slope of Abs1064 nm vs. c(HRP) [4]: 0.04644 nM⁻¹
inhibit Myr activity | N[C@@H](CCC(=O)N[C@@H](CS)C(=O)NCC(=O)O)C(=O)O [GSH] | 
